Source: patent US9255094B2, “Pyrido[4,3-B]indoles and methods of use” (Medivation Technologies, Inc., priority 2009, dated 2016)

How the values were obtained:
[1] = biological target: T1, human recombinant adrenergic α2C receptor (Homo sapiens, UniProt P18825); assay: Adrenergic α2C radioligand binding assay ([3H]MK-912); conditions: compound at 0.1 μM; 1 nM [3H]MK-912; insect Sf9 cells; read-out: Percent Inhibition of ligand binding, Adrenergic (0.1 μM) a2C
T1 construct: expressed in transfected cells; host or cells: insect Sf9 cells
T1 sequence (P18825 1-462): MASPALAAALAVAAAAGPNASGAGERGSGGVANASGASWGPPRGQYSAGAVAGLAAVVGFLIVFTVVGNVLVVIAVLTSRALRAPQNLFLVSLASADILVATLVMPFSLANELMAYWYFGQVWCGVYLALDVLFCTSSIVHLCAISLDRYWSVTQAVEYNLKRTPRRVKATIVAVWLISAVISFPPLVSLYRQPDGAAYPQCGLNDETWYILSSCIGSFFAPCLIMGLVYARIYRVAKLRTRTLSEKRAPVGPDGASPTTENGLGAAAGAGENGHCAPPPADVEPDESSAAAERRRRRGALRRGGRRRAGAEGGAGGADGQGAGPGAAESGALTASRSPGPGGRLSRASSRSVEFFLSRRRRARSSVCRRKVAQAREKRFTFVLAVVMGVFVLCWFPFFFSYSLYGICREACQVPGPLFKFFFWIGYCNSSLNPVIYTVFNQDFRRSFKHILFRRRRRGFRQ
Experimental: To evaluate in radioligand binding assays the activity of compounds of the invention, human recombinant adrenergic α2C receptor expressed in insect Sf9 cells (Uhlen S et al. J. Pharmacol. Exp. Ther. 271:1558, 1994) in a modified Tris-HCl buffer (50 mM Tris-HCl, pH 7.4, 12.5 mM MgCl2, 2 mM EDTA) is used. Compounds of the invention are incubated with 1 nM [^3H]MK-912 for 60 min at 25° C. Non-specific binding is estimated in the presence of 10 μM WB-4101. Receptor proteins are filtered and washed, the filters are then counted to determine [^3H]MK-912 specifically bound. Compounds are screened at 1 μM or lower, using 1% DMSO as vehicle. Compounds of the invention are tested in this biochemical assay and percent inhibition of specific binding is determined.

[2] = biological target: T2, human recombinant adrenergic α2A receptor (Homo sapiens, UniProt P08913); assay: Adrenergic α2A radioligand binding assay ([3H]MK-912); conditions: 1 nM [3H]MK-912, insect Sf9 cells; for inhibition at 0.1 µM: compound at 0.1 μM, read-out: Percent Inhibition of ligand binding, Adrenergic (0.1 μM) a2A; for inhibition at 1 µM: compound at 1 μM, read-out: Percent Inhibition of ligand binding, Adrenergic (1 μM) a2A
T2 construct: expressed in transfected cells; host or cells: insect Sf9 cells
T2 sequence (P08913 1-465): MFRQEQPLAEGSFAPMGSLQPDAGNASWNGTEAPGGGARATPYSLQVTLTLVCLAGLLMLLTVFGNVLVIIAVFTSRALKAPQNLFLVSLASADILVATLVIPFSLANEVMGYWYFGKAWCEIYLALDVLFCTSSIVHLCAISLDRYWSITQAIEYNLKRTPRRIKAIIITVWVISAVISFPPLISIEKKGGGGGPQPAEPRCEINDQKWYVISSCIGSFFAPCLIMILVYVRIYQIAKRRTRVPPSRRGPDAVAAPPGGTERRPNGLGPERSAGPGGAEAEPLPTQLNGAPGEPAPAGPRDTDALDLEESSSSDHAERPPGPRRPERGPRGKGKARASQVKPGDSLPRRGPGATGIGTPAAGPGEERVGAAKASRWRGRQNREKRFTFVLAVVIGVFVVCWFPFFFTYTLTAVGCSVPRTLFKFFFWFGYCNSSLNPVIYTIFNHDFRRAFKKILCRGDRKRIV
Experimental: To evaluate in radioligand binding assays the activity of compounds of the invention, human recombinant adrenergic α2A receptor expressed in insect Sf9 cells (Uhlen S et al. J. Pharmacol. Exp. Ther. 271:1558, 1994) in a modified Tris-HCl buffer (50 mM Tris-HCl, pH 7.4, 12.5 mM MgCl2, 2 mM EDTA) was used. Compounds of invention were incubated with 1 nM [^3H]MK-912 for 60 min at 25° C. MK912 is (2S-trans)-1,3,4,5′,6,6′,7,12b-octahydro-1′,3′-dimethyl-spiro[2H-benzofuro[2,3-a]quinolizine-2,4′(1′H)-pyrimidin]-2′(3′H)-one hydrochloride Non-specific binding was estimated in the presence of 10 μM WB-4101 (2-(2,6-dimethoxyphenoxyethyl)aminomethyl-1,4-benzodioxane hydrochloride). Receptor proteins were filtered and washed, the filters were then counted to determine [^3H]MK-912 specifically bound.

[3] = biological target: T3, human recombinant serotonin (5-Hydroxytryptamine) 5-HT5A receptor (Homo sapiens, UniProt P47898); assay: Serotonin 5-HT5A radioligand binding assay ([3H]LSD); conditions: compound at 0.1 μM; 1.7 nM [3H]LSD; CHO-K1 cells; read-out: Percent Inhibition of ligand binding, Serotonin (0.1 μM) 5-HT5A
T3 construct: expressed in transfected cells; host or cells: Chinese hamster ovary (CHO-K1) cells
T3 sequence (P47898 whole entry): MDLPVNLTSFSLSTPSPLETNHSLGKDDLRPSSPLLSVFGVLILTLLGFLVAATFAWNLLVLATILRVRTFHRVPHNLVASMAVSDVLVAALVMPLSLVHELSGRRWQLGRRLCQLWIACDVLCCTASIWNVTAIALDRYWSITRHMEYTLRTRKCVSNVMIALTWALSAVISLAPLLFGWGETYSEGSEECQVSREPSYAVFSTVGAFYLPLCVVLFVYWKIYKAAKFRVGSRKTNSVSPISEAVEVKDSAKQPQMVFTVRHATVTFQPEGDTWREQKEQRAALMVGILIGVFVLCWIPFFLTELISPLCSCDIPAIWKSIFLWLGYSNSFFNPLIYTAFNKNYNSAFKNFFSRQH
Experimental: Compounds of the invention were incubated with 1.7 nM [^3H]Lysergic acid diethylamide (LSD) for 60 min at 37° C. […] Receptor proteins were filtered and washed, the filters were then counted to determine [^3H]LSD specifically bound. Compounds were screened at 1 μM or lower, using 1% DMSO as vehicle. Compounds of the invention were tested in this biochemical assay and percent inhibition of specific binding was determined. Biochemical assay results are presented as the percent inhibition of specific binding in Table 4.

[4] = biological target: T4, human recombinant histamine H2 receptor (Homo sapiens, UniProt P25021); assay: Histamine H2 radioligand binding assay ([125I]Aminopotentidine); conditions: compound at 1 μM; 0.1 nM [125I]Aminopotentidine; receptor expressed in CHO-K1 cells
T4 construct: expressed in transfected cells; host or cells: Chinese hamster ovary (CHO) K1 cells
T4 sequence (P25021 whole entry): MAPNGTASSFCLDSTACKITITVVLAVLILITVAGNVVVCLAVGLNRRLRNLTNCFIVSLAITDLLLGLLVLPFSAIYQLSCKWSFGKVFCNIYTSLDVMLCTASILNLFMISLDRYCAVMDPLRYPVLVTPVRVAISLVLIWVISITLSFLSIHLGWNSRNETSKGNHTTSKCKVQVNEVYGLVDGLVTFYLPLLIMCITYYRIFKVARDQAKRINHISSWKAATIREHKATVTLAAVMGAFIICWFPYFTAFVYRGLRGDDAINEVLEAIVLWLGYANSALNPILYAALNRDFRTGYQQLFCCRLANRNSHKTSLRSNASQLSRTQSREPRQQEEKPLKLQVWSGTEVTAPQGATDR
Experimental: To evaluate in radioligand binding assays the activity of compounds of the invention, human recombinant histamine H2 receptor expressed in Chinese hamster ovary (CHO) K1 cells (Ruat, M., Proc. Natl. Acad. Sci. USA. 87(5):1658, 1990) in a 50 mM Phosphate buffer, pH 7.4 was used. Compounds of the invention were incubated with 0.1 nM [^125I]Aminopotentidine for 120 min at 25° C. Non-specific binding was estimated in the presence of 3 μM Tiotidine. Receptor proteins were filtered and washed, the filters were then counted to determine [^125I]Aminopotentidine specifically bound. Compounds were screened at 1 μM or lower, using 1% DMSO as vehicle. Biochemical assay results are presented as the percent inhibition of specific binding in Table 2.

| Structure (SMILES) | inhibition at 0.1 µM [1] | inhibition at 0.1 µM [2] | inhibition at 0.1 µM [3] | inhibition at 1 µM [2] | inhibition at 1 µM [4] |
| --- | --- | --- | --- | --- | --- |
| Cc1ccc2c(c1)c1c(n2CC(C)c2ccncc2)CCN(C)C1 (centres unmarked) [Compound 1-46, 2,8-dimethyl-5-(2-(pyridin-4-yl)propyl)-2,3,4,5-tetrahydro-1H-pyrido[4,3-b]indole] | 22% | – | – | – | – |
| CCCC[C@](O)(Cn1c2c(c3cc(Cl)ccc31)CN(C)CC2)c1ccc(F)cc1 [Compound 1-61, (R)-1-(8-Chloro-2-methyl-3,4-dihydro-1H-pyrido[4,3-b]indol-5(2H)-yl)-2-(4-fluorophenyl)hexan-2-ol] | 11% | -7% | 5% | – | – |
| CN1CCc2c(c3cc(Cl)ccc3n2CC(O)c2ccncc2)C1 (centres unmarked) [Compound 1-11, 2-(8-chloro-2-methyl-3,4-dihydro-1H-pyrido[4,3-b]indol-5(2H)-yl)-1-(pyridin-4-yl)ethanol] | 26% | 41% | – | – | – |
| Cc1ccc2c(c1)c1c(n2CCc2ccc(C)nc2)CCN(CC(F)(F)F)C1 [Compound 1-65, 8-methyl-5-(2-(6-methylpyridin-3-yl)ethyl)-2-(2,2,2-trifluoroethyl)-2,3,4,5-tetrahydro-1H-pyrido[4,3-b]indole] | -1% | 6% | -12% | – | – |
| CC[C@](O)(Cn1c2c(c3cc(C)ccc31)CN(C)CC2)c1ccc(F)cc1 [Compound 1-60, (R)-1-(2,8-Dimethyl-3,4-dihydro-1H-pyrido[4,3-b]indol-5(2H)-yl)-2-(4-fluorophenyl)butan-2-ol] | 9% | 3% | 26% | – | – |
| CCCC[C@@](O)(Cn1c2c(c3cc(Cl)ccc31)CN(C)CC2)c1ccc(F)cc1 [Compound 1-67, (S)-1-(8-chloro-2-methyl-3,4-dihydro-1H-pyrido[4,3-b]indol-5(2H)-yl)-2-(4-fluorophenyl)hexan-2-ol] | 13% | – | -11% | – | – |
| Cc1ccc2c(c1)c1c(n2CCc2ccc(C)nc2)CCN(CCC#N)C1 [Compound 1-34, 3-(8-methyl-5-(2-(6-methylpyridin-3-yl)ethyl)-3,4-dihydro-1H-pyrido[4,3-b]indol-2(5H)-yl)propanenitrile] | – | – | – | 3% | 0% |
| Cc1ccc2c(c1)c1c(n2CCc2ccc(C(F)(F)F)nc2)CCNC1 [Compound 1-41, 8-methyl-5-(2-(6-(trifluoromethyl)pyridin-3-yl)ethyl)-2,3,4,5-tetrahydro-1H-pyrido[4,3-b]indole] | – | – | – | 58% | 6% |
| CN1CCc2c(c3cc(Cl)c(Cl)cc3n2CC(C)(O)c2ccncc2)C1 (centres unmarked) [Compound 1-17, 1-(7,8-dichloro-2-methyl-3,4-dihydro-1H-pyrido[4,3-b]indol-5(2H)-yl)-2-(pyridin-4-yl)propan-2-ol] | 39% | 64% | – | – | – |
| COc1ccc([C@](C)(O)Cn2c3c(c4cc(C)ccc42)CN(C)CC3)cc1 [Compound 1-20, (S)-1-(2,8-Dimethyl-3,4-dihydro-1H-pyrido[4,3-b]indol-5(2H)-yl)-2-(4-methoxyphenyl)propan-2-ol] | 28% | 57% | – | – | – |
| Cc1ccc2c(c1)c1c(n2CCc2ccc(C)nc2)CCN(CCCO)C1 [Compound 1-42, 3-(8-methyl-5-(2-(6-methylpyridin-3-yl)ethyl)-3,4-dihydro-1H-pyrido[4,3-b]indole-2(5H)-yl)propan-1-ol] | – | – | – | 35% | 16% |
| Cc1ccc2c(c1)c1c(n2CC(=O)c2ccc(F)cc2)CCN(C)C1 [Compound 1-39, 2-(2,8-dimethyl-3,4-dihydro-1H-pyrido[4,3-b]indol-5(2H)-yl)-1-(4-fluorophenyl)ethanone] | – | – | – | 88% | 66% |
| Cc1ccc2c(c1)c1c(n2CC(O)c2ccncc2)CCN(C)C1 (centres unmarked) [Compound 1-8, 2-(2,8-dimethyl-3,4-dihydro-1H-pyrido[4,3-b]indol-5(2H)-yl)-1-(pyridin-4-yl)ethanol] | 5% | 37% | – | – | – |
| Cc1ccc2c(c1)c1c(n2CC(C)(O)c2ccc(O)cc2)CCN(C)C1 (centres unmarked) [Compound 1-15, 4-(1-(2,8-dimethyl-3,4-dihydro-1H-pyrido[4,3-b]indol-5(2H)-yl)-2-hydroxypropan-2-yl)phenol] | 5% | 32% | – | – | – |
| CN1CCc2c(c3cc(Cl)ccc3n2CC(=O)c2ccc(Cl)cc2)C1 [Compound 1-38, 2-(8-chloro-2-methyl-3,4-dihydro-1H-pyrido[4,3-b]indol-5(2H)-yl)-1-(4-chlorophenyl)ethanone] | – | – | – | 90% | 56% |
| CN1CCc2c(c3cc(Cl)ccc3n2CC(=O)c2ccc(F)cc2)C1 [Compound 1-37, 2-(8-chloro-2-methyl-3,4-dihydro-1H-pyrido[4,3-b]indol-5(2H)-yl)-1-(4-fluorophenyl)ethanone] | – | – | – | 87% | 80% |
| Cc1ccc2c(c1)c1c(n2CCc2ccc(CCCN)nc2)CCN(C)C1 [Compound 1-40, 3-(5-(2-(2,8-dimethyl-3,4-dihydro-1H-pyrido[4,3-b]indol-5(2H)-yl)ethyl)pyridin-2-yl)propan-1-amine] | – | – | – | 31% | 18% |
| CN1CCc2c(c3cc(Cl)ccc3n2CC(=O)c2ccccc2)C1 [Compound 1-36, 2-(8-chloro-2-methyl-3,4-dihydro-1H-pyrido[4,3-b]indol-5(2H)-yl)-1-phenylethanone] | – | – | – | 43% | 48% |
| Cc1ccc2c(c1)c1c(n2CC(C)(C)c2ccncc2)CCN(C)C1 [Compound 1-49, 2,8-dimethyl-5-(2-methyl-2-(pyridin-4-yl)propyl)-2,3,4,5-tetrahydro-1H-pyrido[4,3-b]indole] | 43% | – | – | – | – |
| Cc1ccc2c(c1)c1c(n2CC(=O)c2ccccc2)CCN(C)C1 [Compound 1-35, 2-(2,8-dimethyl-3,4-dihydro-1H-pyrido[4,3-b]indol-5(2H)-yl)-1-phenylethanone] | – | – | – | 19% | 11% |
